The values that follow come from patent publication US12612360B2 (Sanofi, priority 2020, dated 2026).

The experiment addresses T1, ERα (Homo sapiens, UniProt P03372).
T1 construct: host or cells: MCF7
T1 sequence (P03372 1-595): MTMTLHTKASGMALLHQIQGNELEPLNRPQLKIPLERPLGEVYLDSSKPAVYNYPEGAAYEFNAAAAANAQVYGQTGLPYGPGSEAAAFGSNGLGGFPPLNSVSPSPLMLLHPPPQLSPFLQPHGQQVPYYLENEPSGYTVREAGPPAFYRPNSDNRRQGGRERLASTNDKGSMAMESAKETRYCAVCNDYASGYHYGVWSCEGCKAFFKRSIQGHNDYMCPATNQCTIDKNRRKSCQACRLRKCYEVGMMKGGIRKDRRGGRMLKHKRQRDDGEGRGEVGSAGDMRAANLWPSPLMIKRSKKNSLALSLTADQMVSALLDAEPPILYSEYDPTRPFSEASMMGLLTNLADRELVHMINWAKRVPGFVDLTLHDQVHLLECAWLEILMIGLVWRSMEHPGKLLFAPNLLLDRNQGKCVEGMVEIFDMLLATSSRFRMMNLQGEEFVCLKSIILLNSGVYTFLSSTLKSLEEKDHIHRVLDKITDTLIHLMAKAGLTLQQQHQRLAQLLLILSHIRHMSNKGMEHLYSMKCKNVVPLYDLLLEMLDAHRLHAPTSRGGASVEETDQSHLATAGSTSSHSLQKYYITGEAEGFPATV
Briefly: Estrogen receptor degradation activity: breast cancer cell ERα in cell western assay (MCF7 cells). The format is cell-based. The conditions noted are these: for % Degradation At 0.3 μM: 4 hours, relative to fulvestrant 0.1 μM positive control; for DC50: 4 hours post compound addition, concentration which degrades 50% of the estrogen receptor, read-out: Degradation IC50. Put shortly:
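In-cell western readout: ERα immunofluorescence (Alexa 488) normalised to DNA signal (Syto-64) after formalin fixation. Compounds dosed for 4 h on MCF7 cells in stripped-serum, phenol-red-free medium over nine 1:5 steps, 0.3 to […] final; fulvestrant 0.1 μM control. IC50 in nM for 50% ERα degradation.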

In the case of `O=C(O)c1ccc2c(c1)CCCC(c1cccc3c1CCC3)=C2c1ccc(C=C2CN(CCC(F)F)C2)cc1` [Example 163, 9-(4-((1-(3,3-difluoropropyl)azetidin-3-ylidene)methyl)phenyl)-8-(2,3-dihydro-1H-inden-4-yl)-6,7-dihydro-5H-benzo[7]annulene-3-carboxylic acid], the “% Degradation At 0.3 μM” value was 98% and the DC50 amounted to 0.8 nM.
Consider `O=C(O)c1ccc2c(c1)CCCC(c1cccc3c1CCC3(F)F)=C2c1ccc(C=C2CN(CCC(F)F)C2)cc1` [Example 164, 8-(1,1-difluoro-2,3-dihydro-1H-inden-4-yl)-9-(4-((1-(3,3-difluoropropyl)azetidin-3-ylidene)methyl)phenyl)-6,7-dihydro-5H-benzo[7]annulene-3-carboxylic acid], for which the “% Degradation At 0.3 μM” value worked out at 93% and the DC50 was 1.4 nM.
In the case of `O=C(O)c1ccc2c(c1)CCCC(c1ccc(F)c3c1CCC3)=C2c1ccc(C=C2CN(CCC(F)F)C2)cc1` [Example 165, 9-(4-((1-(3,3-difluoropropyl)azetidin-3-ylidene)methyl)phenyl)-8-(7-fluoro-2,3-dihydro-1H-inden-4-yl)-6,7-dihydro-5H-benzo[7]annulene-3-carboxylic acid], the “% Degradation At 0.3 μM” value worked out at 96% and the DC50 worked out at 1.9 nM.
The matching figures for `O=C(O)c1ccc2c(c1)CCCC(Cc1ccccc1)=C2c1ccc(C=C2CN(CCCF)C2)cc1` [Example 167, 8-benzyl-9-(4-((1-(3-fluoropropyl)azetidin-3-ylidene)methyl)phenyl)-6,7-dihydro-acid]: 89% and 1.1 nM.
For `O=C(O)c1ccc2c(c1)CCCC(CCc1ccccc1)=C2c1ccc(C=C2CN(CCCF)C2)cc1` [Example 168, 9-(4-((1-(3-fluoropropyl)azetidin-3-ylidene)methyl)phenyl)-8-phenethyl-6,7-dihydro-5H-benzo[7]annulene-3-carboxylic acid], the “% Degradation At 0.3 μM” value is on record as 95% and the DC50 is 0.3 nM.
In the case of `O=C(O)c1ccc2c(c1)CCCC(CC1CCC1)=C2c1ccc(C=C2CN(CCCF)C2)cc1` [Example 169, 8-(cyclobutylmethyl)-9-(4-((1-(3-fluoropropyl)azetidin-3-ylidene)methyl)phenyl)-6,7-dihydro-5H-benzo[7]annulene-3-carboxylic acid], the “% Degradation At 0.3 μM” value is listed as 90% and the DC50 stood at 0.3 nM.
For `Oc1ccc2c(c1)CCCC(c1ccc(Cl)cc1Cl)=C2c1ccc(C=C2CN(CCCF)C2)cc1` [Example 170, 8-(2,4-dichlorophenyl)-9-(4-((1-(3-fluoropropyl)azetidin-3-ylidene)methyl)phenyl)-6,7-dihydro-5H-benzo[7]annulen-3-ol], the “% Degradation At 0.3 μM” value is on record as 85% and the DC50 is 0.2 nM.
Take `O=C(O)c1ccc2c(c1)CCCC([C@H]1[C@@H]3CCCC[C@@H]31)=C2c1ccc(C=C2CN(CCCF)C2)cc1` [Example 174, 84(1R,6S,70-bicyclo[4.1.0]heptan-7-yl)-9-(4-((1-(3-fluoropropyl)azetidin-3-ylidene)methyl)phenyl)-6,7-dihydro-5H-benzo[7]annulene-3-carboxylic acid]: the “% Degradation At 0.3 μM” value is given as 86% and the DC50 worked out at 2.6 nM.
Consider `O=C(O)c1ccc2c(c1)CCCC(C13CCCC1C3)=C2c1ccc(C=C2CN(CCCF)C2)cc1` (stereo not shown) [Example 175, 8-(bicyclo[3.1.0]hexan-1-yl)-9-(4-((1-(3-fluoropropyl)azetidin-3-ylidene)methyl)phenyl)-6,7-dihydro-5H-benzo[7]annulene-3-carboxylic acid], for which the “% Degradation At 0.3 μM” value is listed as 87% and the DC50 worked out at 0.3 nM.
For `O=C(O)c1ccc2c(c1)CCCC(C1CC13CCC3)=C2c1ccc(C=C2CN(CCCF)C2)cc1` (stereo not shown) [Example 176, 9-(4-((1-(3-fluoropropyl)azetidin-3-ylidene)methyl)phenyl)-8-(spiro[2.3]hexan-1-yl)-6,7-dihydro-5H-benzo[7]annulene-3-carboxylic acid] the same measures were 93% and 0.3 nM.
Regarding `O=C(O)c1ccc2c(c1)CCCC(c1cccc3c1CCCC3)=C2c1ccc(C=C2CN(CCCF)C2)cc1` [Example 177, 9-(4-((1-(3-fluoropropyl)azetidin-3-ylidene)methyl)phenyl)-8-(5,6,7,8-tetrahydronaphthalen-1-yl)-6,7-dihydro-5H-benzo[7]annulene-3-carboxylic acid], the “% Degradation At 0.3 μM” value was 92% and the DC50 was determined as 1 nM.
For `O=C(O)c1ccc2c(c1)CCCC(C1CC3CCC(C3)C1)=C2c1ccc(C=C2CN(CCCF)C2)cc1` (stereo not shown) [Example 178, 8-(bicyclo[3.2.1]octan-3-yl)-9-(4-((1-(3-fluoropropyl)azetidin-3-ylidene)methyl)phenyl)-6,7-dihydro-5H-benzo[7]annulene-3-carboxylic acid] the same measures were 95% and 1.4 nM.
The matching figures for `O=C(O)c1ccc2c(c1)CCCC(c1cccc(Cl)c1)=C2c1ccc(C=C2CN(CCCF)C2)cc1` [Example 180, 8-(3-chlorophenyl)-9-(4-((1-(3-fluoropropyl)azetidin-3-ylidene)methyl)phenyl)-6,7-dihydro-5H-benzo[7]annulene-3-carboxylic acid]: 90% and 0.5 nM.
As to `O=C(O)c1ccc2c(c1)CCCC(c1ccc(Cl)cc1)=C2c1ccc(C=C2CN(CCCF)C2)cc1` [Example 181, 8-(4-chlorophenyl)-9-(4-((1-(3-fluoropropyl)azetidin-3-ylidene)methyl)phenyl)-6,7-dihydro-5H-benzo[7]annulene-3-carboxylic acid], the “% Degradation At 0.3 μM” value stood at 91% and the DC50 was 0.5 nM.
`Cl.O=C(O)c1ccc2c(c1)CCCC(c1cccc(C(F)(F)F)c1)=C2c1ccc(C=C2CN(CCCF)C2)cc1` [Example 182, 9-(4-((1-(3-fluoropropyl)azetidin-3-ylidene)methyl)phenyl)-8-(3-(trifluoromethyl)phenyl)-6,7-dihydro-5H-benzo[7]annulene-3-carboxylic acid hydrochloride]: the “% Degradation At 0.3 μM” value was determined as 89% and the DC50 stood at 0.6 nM.
Consider `Cl.O=C(O)c1ccc2c(c1)CCCC(c1ccccc1C(F)(F)F)=C2c1ccc(C=C2CN(CCCF)C2)cc1` [Example 183, 9-(4-((1-(3-fluoropropyl)azetidin-3-ylidene)methyl)phenyl)-8-(2-(trifluoromethyl)phenyl)-6,7-dihydro-5H-benzo[7]annulene-3-carboxylic acid hydrochloride], for which the “% Degradation At 0.3 μM” value was 92% and the DC50 was found to be 0.4 nM.
For the molecule `Cl.O=C(O)c1ccc2c(c1)CCCC(c1ccc(C(F)(F)F)cc1)=C2c1ccc(C=C2CN(CCCF)C2)cc1` [Example 185, 9-(4-((1-(3-fluoropropyl)azetidin-3-ylidene)methyl)phenyl)-8-(4-(trifluoromethyl)phenyl)-6,7-dihydro-5H-benzo[7]annulene-3-carboxylic acid hydrochloride], the “% Degradation At 0.3 μM” value amounted to 90% and the DC50 came out at 0.5 nM.
